These results are taken from US11046651B2, “Piperazine substituted azapine derivatives and uses thereof” (Alairion, Inc., priority 2019, dated 2021).

The Ki is the dissociation constant of the complex between target and ligand, obtained from inhibition or displacement. High values mean weaker binding, low ones tighter binding.

Where two headings read alike, the source gives them in different places. A value given as a limit tells only on which side of the number the result lay.

One test addresses 5-HT2A (Homo sapiens (Human), UniProt P28223). Briefly: 5-HT2A binding assay ([3H]-Ketanserin, HEK293 stable cell line membranes). The note with it: Table F, class symbols.
In another test the target is 5-HT2C (Homo sapiens (Human), UniProt P28335). Put plainly: 5-HT2C binding assay ([3H]-Mesulergine, HEK293 membranes). On the procedure: 5-HT2C Binding Assay Protocol
Chain of 5-HT2C (P28335 33-458): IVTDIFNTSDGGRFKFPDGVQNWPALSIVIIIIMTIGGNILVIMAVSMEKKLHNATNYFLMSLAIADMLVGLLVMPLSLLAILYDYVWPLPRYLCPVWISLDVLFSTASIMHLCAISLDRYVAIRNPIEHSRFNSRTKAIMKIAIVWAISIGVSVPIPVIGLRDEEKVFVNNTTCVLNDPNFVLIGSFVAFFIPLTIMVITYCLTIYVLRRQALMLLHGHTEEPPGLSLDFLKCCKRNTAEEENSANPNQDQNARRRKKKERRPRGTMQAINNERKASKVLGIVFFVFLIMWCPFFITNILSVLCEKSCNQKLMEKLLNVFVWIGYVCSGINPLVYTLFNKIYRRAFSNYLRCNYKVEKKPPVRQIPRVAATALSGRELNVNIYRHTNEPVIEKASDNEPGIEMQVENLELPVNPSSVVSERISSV
The testing compounds were diluted with DMSO, starting at 2 mM, with 8-points and 5-fold serial dilutions.
1 μL of a compound of the present disclosure the reference compound (Table J) was transferred to an assay plate. […] 1 μL of DMSO was transferred to an assay plate according to the plate map for total binding (High control: HC).
Unifilter-96 GF/C filter plates were soaked with 50 μL of 0.3% PEI per well for about 0.5 hours at room temperature. When the binding assays were complete, the reaction mixture was filtered through the GF/C filter plates using Perkin Elmer Filtermate Harvester, and each plate was washed 4 times with cold wash buffer. The filter plates were dried for 1 hour at 50° C. After drying, the bottom of the filter plate wells were sealed using Perkin Elmer Unifilter-96 backing seal tape. 50 μL of Perkin Elmer Microscint 20 cocktail was added. The top of the filter plates were sealed with Perkin Elmer TopSeal-A sealing film.
^3H trapped on filters were counted using Perkin Elmer MicroBeta2 Reader. Inhibition constants were calculated using the following equation:
[formula] The data was analyzed using Prism 5. The model used was “log(inhibitor) vs. response—Variable slope” to fit the data and calculate IC50. The IC50 was then converted to Ki using the following equation: Ki=IC50/(1+L/Kd), wherein L is the radioligand concentration in the reaction system; Kd is the affinity of radioligand to the receptor.

The test system of the next test is male Wistar rats. Briefly: SCORE EEG/EMG sleep-wake monitoring: sleep continuity, number of arousals, depth of sleep. In kind it is in vivo, rat. The note with it: 30 mg/kg PO. The method, then: Example 30. Experimental Details and Methods for Determining Sleep Continuity, Number of Arousals, and Depth of Sleep
Treatment detail plots (see, e.g., FIGS. 1-10) depict pre- and post-treatment time series plot ±30 hours before and after treatment at CT-18 (6-hours after lights-off) or pre- and post-treatment time series plots 29 hr before and 31 hr after treatments at CT-5 (5-hours after lights-on). Treatment occurred at the beginning of the hour marked by a triangle on the abscissa of the plot. Variables were computed in hourly bins.
All data were plotted as group mean±SEM (see, e.g., FIGS. 1-10). The gray shaded area encompasses the vehicle treatment mean±SEM. Along the x-axis, time of treatment is marked by a triangle unless noted otherwise. Along the x-axis, light/dark bars indicate lights on/off.
Adult, male Wistar rats (approximately 270 g at time of surgery, Charles River Laboratories) were administered dexmedetomidine 25 μg/kg and anesthetized (2% isoflourane in 95/5 oxygen, to effect) and surgically prepared with a cranial implant that permitted chronic electro-encephalogram (EEG) and electromyogram (EMG) recording. Body temperature and locomotor activity were monitored via a miniature transmitter (Minimitter Series PDT4000 E-Mitter, Bend, Oreg.) surgically placed in the abdomen during the same anesthetic event when the cranial portion was implanted. The cranial implant consisted of miniature stainless steel screws (2 frontal [+3.9 AP from bregma, 2.0 ML], 2 occipital [−6.4 AP, 5.5 ML], and 1 ground placed sagittaly and posterior to lambda) for EEG recording. Two Teflon-coated multi-strand stainless steel wires were positioned under the nuchal trapezoid muscles for EMG recording. All leads were soldered to a miniature connector (Omnetics, Minneapolis, Minn.) and gas sterilized with ethylene oxide prior to surgery. The implant assembly was affixed to the skull by the combination of the EEG recording screws, cyanoacrylate applied between the hermetically sealed implant connector and skull, and a UV-curing dental acrylic. An analgesic (meloxicam 1 mg/kg IP) was administered 1 day prior to surgery and daily for 2 days post-surgery. Neosporin with lidocaine was applied topically to the peri-implant margin. At least three weeks were allowed for surgical recovery prior to any data collection.
Rats were housed individually within specially modified Innovive® cages equipped with a custom-built ultra-low-torque slip-ring commutator and a customized Innovive® polycarbonate cage-top. These cages were located on shelves of a modified stainless steel animal rack that was pre-wired for physiological and behavioral data collection. Food and water were available ad libitum and the ambient temperature was 22±1° C. A 24-hr light-dark cycle (LD 12:12) was maintained throughout the study using LED lighting strips. Light intensity averaged 35 lux at mid-level inside the cage. Relative humidity averaged 50% approximately. Animals were undisturbed for two days before and after each treatment.
Sleep and wakefulness were determined using SCORE™—a Linux and Windows-10 real-time computer-based sleep-wake and physiological monitoring system. Validation of the SCORE™ sleep stage identification algorithm in rodents and the system's utility in pre-clinical drug discovery and evaluation have been previously described (Edgar et al. Psychopharmacology 1991, 105, 374; Gilmour et al., Neuropharmacology 2012, 64, 224; McCarthy et al., 2016, Neuropharmacology 108, 415; Olive et al., J. Pharmacology &Experimental Therapeutics 1998 285, 1073; Phillips et al, Neuropharmacology 2012, 62, 1359; Seidel et al. J Pharmacology &Experimental Therapeutics 1995, 275, 263; Van Gelder et al. Sleep 1991, 14, 48). […]

In the next test the target is H1 (Homo sapiens (Human), UniProt P35367). Briefly: H1 binding assay ([3H]pyrilamine, HEK293 stable cell line membranes). The note with it: Table E, class symbols.
Chain of H1 (P35367 whole entry): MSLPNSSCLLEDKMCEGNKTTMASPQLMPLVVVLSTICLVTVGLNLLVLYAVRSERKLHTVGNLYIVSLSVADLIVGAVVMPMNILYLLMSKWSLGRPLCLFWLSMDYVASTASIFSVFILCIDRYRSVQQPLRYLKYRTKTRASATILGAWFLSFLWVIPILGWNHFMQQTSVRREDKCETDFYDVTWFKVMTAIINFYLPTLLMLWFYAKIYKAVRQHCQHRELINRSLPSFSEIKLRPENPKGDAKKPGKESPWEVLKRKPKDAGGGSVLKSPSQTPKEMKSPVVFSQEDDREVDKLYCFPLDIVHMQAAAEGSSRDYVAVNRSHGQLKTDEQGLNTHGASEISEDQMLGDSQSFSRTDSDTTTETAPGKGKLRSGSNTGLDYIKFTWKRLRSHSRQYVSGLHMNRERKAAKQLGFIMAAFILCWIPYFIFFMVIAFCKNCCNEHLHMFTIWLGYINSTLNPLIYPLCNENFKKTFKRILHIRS

Chain of 5-HT2A (P28223 whole entry, species assumed): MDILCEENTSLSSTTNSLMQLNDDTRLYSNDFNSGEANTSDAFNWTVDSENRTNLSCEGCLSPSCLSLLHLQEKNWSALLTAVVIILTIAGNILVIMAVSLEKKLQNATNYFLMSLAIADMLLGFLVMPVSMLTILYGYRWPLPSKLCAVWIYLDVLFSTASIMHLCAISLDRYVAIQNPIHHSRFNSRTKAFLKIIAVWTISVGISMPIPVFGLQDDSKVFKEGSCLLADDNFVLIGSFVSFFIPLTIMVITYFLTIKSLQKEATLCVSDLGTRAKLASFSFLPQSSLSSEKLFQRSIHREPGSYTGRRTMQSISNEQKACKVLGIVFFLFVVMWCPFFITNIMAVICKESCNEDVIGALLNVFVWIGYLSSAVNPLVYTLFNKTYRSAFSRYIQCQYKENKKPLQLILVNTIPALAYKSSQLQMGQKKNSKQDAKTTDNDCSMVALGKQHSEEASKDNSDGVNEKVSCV

Turning to `Cc1ccc2c(c1)Oc1cc(C)ccc1C(N1CCN(CC(C)(C)C(=O)O)CC1)=N2` [Compound No. 7, 3-(4-(3,7-dimethyldibenzo[b,f][1,4]oxazepin-11-yl)piperazin-1-yl)-2,2-dimethylpropanoic acid], the Ki at 5-HT2A is 1 to 25 nM; on 5-HT2C, > 500 nM; on 5-HT2C (numeric values) it was 2220 nM; on H1, > 50 nM. Further, the “reductions in the number of transitions from sleep to wake per hour relative to controls” value with male Wistar rats (CT-5, male Wistar rats) is listed as 40-50%. Also, the “increase in sleep bout-length per hour relative to vehicle control” value in the test on male Wistar rats (CT-18, male Wistar rats) is 3-4 fold. Also, the “normalized EEG delta power (slow wave activity) during nonREM sleep” value with male Wistar rats (CT-18, male Wistar rats) is “increases in EEG slow wave activity in nonREM sleep”.
